The record followed here is US20260083742A1, “HOMOLOGOUS RECOMBINATION REPAIR DEFICIENCY (HRD) AS A PREDICTIVE BIOMARKER FOR TREATING CANCER WITH WEE1 INHIBITORS” (Zeno Management, Inc., priority 2023, published 2026).

Experiment [1] deals with patient-derived ovarian xenograft (PDX) models (OVA2-BUR, CTG-0703, CTG-2213). The experiment is described as follows: Anti-tumor efficacy in ovarian PDX models. It counts as in vivo. As to conditions: BRCA1 pathogenic mutant ovarian PDX vs BRCA1 WT / benign mutant; azenosertib 60 mg/kg, niraparib 35 mg/kg. As for the experimental part: The OVA2-BUR model has an HRD negative/BRCA1 WT phenotype. Tumor growth inhibition was also measured using BRCA1^Glu1607Ter (pathogenic) mutant and BRCA1^Pro1099Leu (Benign) mutant PDX models.

Experiment [2] concerns MDA-MB-436 olaparib-resistant model. The experiment is described as follows: MDA-MB-436 olaparib-resistant CDX model in vivo. As to conditions: azenosertib 80 mg/kg. The text has this: MDA-MB-436 PARP inhibitor-resistant lines were generated by long-term in vitro treatment with a PARP inhibitor that is olaparib (Ola^R) or niraparib (Nir^R). Resistant cells were confirmed by sequencing to have BRCA1 reversion mutation. The parental MDA-MB-436 cell line remains sensitive to PARP inhibitors as expected (FIG. 5A), while the Nir^R (FIG. 5B) and Ola^R (FIG. 5C) MDA-MB-436 cell lines are no longer sensitive to PARP inhibitors but are sensitive to azenosertib. Azenosertib activity was further confirmed in the PARP inhibitor-resistant MDA-MB-436 CDX model in vivo. […] WEE1 inhibitor or PARP inhibitor treatment in the Parental TNBC animal model (without PARP inhibitor resistance) is shown in FIG. 5D.

In experiment [3] the test system is HRD+ cells UWB1289, HCC1937, COV362, HCC1569, HCC1395. Nature of the experiment: In vitro cell viability (CellTiter-Glo) in a panel of HRD+ cells. To be noted: HRD+ cells both PARP inhibitor-sensitive and PARP inhibitor-resistant, 5 cell doublings. It counts as cell-based. As to the method: Azenosertib, olaparib and AZD5305 (PARP1-selective inhibitor) were individually tested in vitro in a panel of HRD+ cells as indicated in Table 10. Briefly, cells were seeded in their recommended media at a density of 1,000 cells per well into 96 well plates. After 24 hr, drug treatment was performed and cells were incubated in a 37° C. for 5 cell doublings. Cell viability was measured using CellTiter-Glo (CTG) (Promega) according to the manufacturer's recommendations. Percent viability was calculated as percentage of cell viability relative to DMSO-only vehicle control. Dose-response curves were fit with Graphpad Prism 9 to determine IC50 values.

The test system of experiment [4] is SUM149PT TNBC xenograft (BRCA1 splice isoform Δ11q). Nature of the experiment: SUM149PT TNBC xenograft tumor growth inhibition. It counts as in vivo, mice. As to the method:
SUM149PT is a TNBC xenograft model harboring a BRCA1 splice isoform (Δ11q) that produces a truncated, partially functional protein which thereby promotes PARP inhibitor resistance. Azenosertib monotherapy and its combination with olaparib or AZD5305 was evaluated in the SUM149PT model in vivo in mice (FIGS. 10A-10B), and Table 12 summarizes the groups and treatments. Single agent treatment with olaparib at 100 mg/kg QD (FIG. 10A) or with the PARP1 selective inhibitor, AZD5305, at 0.1 or 1 mg/kg QD (FIG. 10B) confirmed SUM149PT resistance to PARP inhibitors.

Turning to `C=CCn1c(=O)c2cnc(Nc3ccc(N4CCN(C)CC4)cc3)nc2n1-c1ccc2c(n1)[C@@](O)(CC)CC2` [Azenosertib, azenosertib], the “tumor growth inhibition in HRD+ model compared to BRCA1 WT or benign BRCA1 mutant models” value in experiment [1] is listed as “increased tumor growth inhibition”. Moreover, in experiment [2], the “tumor volume compared to the PARP inhibitor” value is given as “significant reduction in tumor volume”. Further, the “tumor cell growth (dose response curves)” value in experiment [3] is recorded as “reduces tumor cell growth”. For the same molecule, the TGI in experiment [4] (monotherapy azenosertib 60 mg/kg QD 5:2) was 82%; in experiment [4] (monotherapy azenosertib 80 mg/kg QD 5:2) it was 91%; in experiment [4] (monotherapy azenosertib 100 mg/kg QD 5:2), 101%.
